One series concerns ileum of the guinea pig. The series is described as follows: Spasmolytic activity in vivo (effect on the ileum of the guinea pig, contractions induced with intravenous carbachol). The conditions noted are these: atropine = 1. On the procedure: Effect on the ileum of the guinea pig.
The spasmolytic effect of the compounds was tested on the ilea of urethane-narcotised, empty-stomach guinea pigs of approximately 500 g (Zwagemakers, Arzn. Forsch. 30, 1517 (1980). Contractions of the intestine were induced every 7 minutes with intravenously administered carbachol in a dose of 5 μg per kg of body weight. After constant response had been reached, the test compounds were administered 3 minutes before the next dose of carbachol was given and the protecting effect was studied for 52 minutes. The contractions after administration of the test compounds were expressed as a percentage of the average of two control values. The average percentage of inhibition was calculated throughout the 52 minutes from the region under the curve. The maximum percentage of inhibition and the duration of the spasmolytic effect were also determined. The spasmolytic effect was considered to be finished when two successive contractions were 20% or less of the control value.

A short description of series [1]: Peripheral muscarinolytic side effect (saliva/tear secretion, oxotremorine) relative to spasmolytic activity. The conditions noted are these: mouse, in vivo, ip. How it is done: (§1) The choice of the dosage depends on the nature and the severity of the disease.
(§2) 3. Muscarinolytic "side effects".
(§3) The compounds to be tested and oxotremorine were administered intraperitoneally to femal DAP-mice at the same instant or, in case of analgesia, also 30 minutes previously.
(§4) Inhibition of the tremors and/or analgesia caused by oxotremorine is a measure of the central muscarinolytic activity, while the inhibition of saliva secretion or tear secretion reflects the peripheral muscarinolytic activity.

Series [2] is described as follows: Central muscarinolytic side effect (tremors/analgesia, oxotremorine) relative to spasmolytic activity. The conditions noted are these: mouse, in vivo, ip. How it is done:
as §1, §2, §3, §4

On to `CN1[C@@H]2CC[C@H]1C[C@@H](OC(=O)C(CO)c1ccccc1)C2` (stereo partly shown) [Atropine], for which the Spasm. activ. in the series on ileum of the guinea pig is reported as 1.

In the series on ileum of the guinea pig, `CCN(CCCC(=O)C1CCCCC1)C(C)Cc1ccc(OC)cc1` (stereo not shown) [Secoverine] showed a Spasm. activ. of 0.6. The selectivity ratio in series [1] was 50; in series [2] it was 2.

Values taken from patent US4889849A, “Spasmolytically active tertiary amine derivatives” (Duphar International Research B.V., priority 1984, dated 1989).
